Several values for one entry are separate records, joined by “and”; a condition that tells them apart may be missing. Equal entries are not always repeated.
Columns and labels:
[1] = mn = molality of the nth substance listed, in mol/kg; settings: 100 kPa, Liquid; for viscosity: Capillary tube (Ostwald / Ubbelohde) method; for speed of sound: Frequency=3 MHz, Single path-length method; for mass density: Vibrating tube method
[2] = 100 kPa, Liquid; for viscosity: Capillary tube (Ostwald / Ubbelohde) method

CN(C)C(=N)NC(=N)N.Cl [N,N-dimethylimidodicarbonimidic diamide hydrochloride] + O
[1]
Settings | mass density, m1 = 0.005 [kg/m3] | mass density, m1 = 0.01 [kg/m3] | mass density, m1 = 0.05 [kg/m3] | speed of sound, m1 = 0.005 [m/s] | speed of sound, m1 = 0.01 [m/s] | speed of sound, m1 = 0.05 [m/s] | viscosity, m1 = 0.005 [mPa·s] | viscosity, m1 = 0.01 [mPa·s] | viscosity, m1 = 0.05
293.15 K | 998.35 | 998.57 | 999 | 1483 | 1483.3 | 1483.7 | 1.006 | 1.01 | 1.014 mPa·s
298.15 K | 997.2 | 997.4 | 997.91 | 1497 | 1497.3 | 1497.7 | 0.891 | 0.893 | 0.895 mPa·s and 0.8947 mPa·s
303.15 K | 995.72 | 995.99 | 996.53 | 1509.4 | 1509.7 | 1510 | 0.799 | 0.801 | 0.804 mPa·s
308.15 K | 994.19 | 994.37 | 994.92 | 1520 | 1520.3 | 1520.7 | 0.722 | 0.725 | 0.728 mPa·s and 0.7276 mPa·s
313.15 K | 992.38 | 992.54 | 993.1 | 1529.1 | 1529.4 | 1529.7 | 0.655 | 0.657 | 0.659 mPa·s

O [water]
[2]
Settings | viscosity [mPa·s]
293.15 K | 1.002
298.15 K | 0.89
303.15 K | 0.797
308.15 K | 0.719
313.15 K | 0.652

Settings | speed of sound [m/s]
[2], 313.15 K, Frequency=3 MHz, Single path-length method | 1528.8

Reference: the NIST ThermoML archive (doi:10.1021/acs.jced.8b00509)
